Experimental data published in patent US8940762B2, “Methods for treating pain” (AbbVie Inc., priority 2010, dated 2015).

How the values were obtained:
[1] = system: osteoarthritic rats (MIA-induced osteoarthritis pain); test: Monoiodoacetate-induced osteoarthritis (MIA-OA) pain model, hind limb grip force; type: in vivo, Sprague-Dawley rats; details: for percent return of grip force to normalcy: n=6
Experimental: Pain behavior was assessed by measurement of hind limb grip force (GF) in adult osteoarthritic rats. Unilateral knee joint osteoarthritis was induced in rats by a single intraarticular (i.a.) injection of sodium monoiodoacetate (MIA) (Sigma, St. Louis, Mo.) (3 mg in 0.05 ml sterile isotonic saline) into the joint cavity using a 26 G needle under light (2-4%) isoflurane anesthesia, as previously described ([…]., Honore, P., 2009, Pharmacological modulation of movement-evoked pain in a rat model, Eur. J. […] Following injection, the animals were allowed to recover from the effects of anesthesia (usually 5-10 minutes) before returning them to their home cages. Grip strength was assessed in osteoarthritic rats as a measure of activity-induced pain. Measurements of peak hind limb grip force were conducted by recording the maximum compressive force (CFmax), in grams of force, exerted on the hind limb strain gauge, in a commercially available grip force measurement system (Columbus Instruments, Columbus, Ohio). During testing, each rat was gently restrained and allowed to grasp the wire mesh frame (10×12 cm) attached to the strain gauge. The animal was then moved in a rostral-to-caudal direction until the grip was broken. Each rat was sequentially tested twice at an approximately two-three minute interval to obtain a raw mean grip force (CFmax in gram force units). In order to account for the body weight differences among the rats, this raw mean grip force was converted to a maximum hind limb compressive force for each animal by dividing the CFmax by the body weight of the rat in kg [(CFmax in gram force)/kg body weight]. […] Compound A was administered in 10% DMSO/HBC vehicle orally at a volume of 2 ml/kg, 60 minutes before testing. The NSAID diclofenac (30 mg/kg, p.o.) was given 60 minutes before data collection and used as a positive control. A group of age-matched naïve (not injected with MIA) animals was added as a comparator to the drug-dosed groups. The vehicle control response for each group of MIA-treated animals was defined as the 0% response (0% effect), whereas the naïve control group was defined as the normal response and as 100% effect. The % effects for each dose group was expressed as % return of response to normalcy, compared to the naïve group. That is, the % effect=(Treatment CFmax-Vehicle CFmax)[…]]×100). Higher % effect numbers indicate increased relief from the pain in the model, with 100% indicating a return to the level of response seen in normal (non-osteoarthritic) animals. The data obtained from various dose groups for the test compound were compared with data from the naïve group.

[2] = system: CCI rats (sciatic nerve-induced neuropathic pain); details: single dose p.o.; at less than about 100 micromoles/kg, for example less than about 30 micromoles/kg
Excerpt: Food and water were available ad libitum at all times except during testing. […]
The von Frey filaments were presented perpendicularly to the plantar surface of the selected hind paw, and then held in this position for approximately 8 seconds with enough force to cause a slight bend in the filament. Positive responses included an abrupt withdrawal of the hind paw from the stimulus, or flinching behavior immediately following removal of the stimulus.

Row | SMILES | percent return of grip force to normalcy ([1]; 3 μmol/kg p.o., 60 minutes before data collection, MIA rats) | percent return of grip force to normalcy ([1]; 10 μmol/kg p.o., 60 minutes before data collection, MIA rats) | percent return of grip force to normalcy ([1]; 30 μmol/kg p.o., 60 minutes before data collection, MIA rats) | ED50 (return of grip force to normalcy) ([1]; p.o., 60 minutes before testing, MIA rats) | change in Paw Withdrawal Threshold versus vehicle [2] | % Effect (return of grip force to normalcy) ([1]; 30 mg/kg p.o., 60 minutes before data collection, positive control)
1 | c1cc2cc(-c3ccc(O[C@H]4C[C@H]5CC[C@@H](C4)N5)cn3)ccc2[nH]1 [Compound A, 5-(5-((1R,3r,5S)-8-azabicyclo[3.2.1]octan-3-yloxy)pyridine-2-yl)-1H-indole] | approximately 39% | ~60% | ~73% | approximately 6 μmol/kg | statistically significant change | –
2 | O=C(O)Cc1ccccc1Nc1c(Cl)cccc1Cl [diclofenac, reference compound] | – | – | – | – | – | about 69%
